According to ChEMBL document CHEMBL2375306, “Antimicrobial peptides containing unnatural amino acid exhibit potent bactericidal activity against ESKAPE pathogens” (Bioorg Med Chem, 2013):
In brackets after ≈: the same amount, converted by molar mass. Square brackets hold non-standard residues; d marks the D form. Peptide text beside a SMILES is read from it. * marks the point of attachment. ξ: configuration not given here. Phe(4-NO2) = N[C@@H](Cc1ccc([N+](=O)[O-])cc1)C(=O)O; Pro(3ξ,4ξ-(CH2)4) = O=C(O)[C@H]1NCC2CCCCC21; Pro(3,4-benzo) = O=C(O)[C@H]1NCc2ccccc21; Phe(4-F) = N[C@@H](Cc1ccc(F)cc1)C(=O)O; Tic = O=C(O)[C@@H]1Cc2ccccc2CN1; X1 = CC(=O)NC(=O)[C@H](CN)N*; Dap = NC[C@H](N)C(=O)O; βAla = NCCC(=O)O

Tests used:
Type in all cases: functional
[1] = system: Pseudomonas aeruginosa; assay: Antibacterial activity against Pseudomonas aeruginosa PAO1 after 24 hrs by broth microdilution method; conditions: PAO1, 24 h
[2] = system: Klebsiella aerogenes; assay: Antibacterial activity against Enterobacter aerogenes after 24 hrs by broth microdilution method
[3] = system: Staphylococcus aureus; assay: Antibacterial activity against methicillin-sensitive Staphylococcus aureus UAMS-1 after 24 hrs by broth microdilution method; conditions: UAMS-1, 24 h
[4] = system: Acinetobacter baumannii; assay: Antibacterial activity against Acinetobacter baumannii WRAIR clinical isolate 13 after 24 hrs by broth microdilution method; conditions: WRAIR clinical isolate 13, 24 h
[5] = system: Enterococcus faecium; assay: Antibacterial activity against Enterococcus faecium MMC4 after 24 hrs by broth microdilution method; conditions: MMC4, 24 h
[6] = system: Klebsiella pneumoniae; assay: Antibacterial activity against Klebsiella pneumoniae BAMS clinical isolate 07-18 after 24 hrs by broth microdilution method; conditions: BAMS clinical isolate 07-18, 24 h

SMILES | MBC [1] | MIC [1] | MBC [2] | MIC [2] | MBC [3] | MIC [3] | MBC [4] | MIC [4] | MBC [5] | MIC [5] | MBC [6] | MIC [6]
CC(C)C[C@H](NC(=O)[C@@H](N)CCCCN)C(=O)N1Cc2ccccc2C[C@H]1C(=O)N1CC2CCCCC2[C@H]1C(=O)N[C@@H](CCCCN)C(=O)N1Cc2ccccc2C[C@H]1C(=O)N1CC2CCCCC2[C@H]1C(=O)NC(=O)[C@H](Cc1ccccc1)NCC(=O)N1Cc2ccccc2C[C@H]1C(=O)N1CC2CCCCC2[C@H]1C(=O)N[C@@H](CCCCN)C(=O)N1Cc2ccccc2C[C@H]1C(=O)N1CC2CCCCC2[C@H]1C(=O)NC(=O)[C@H](Cc1ccccc1)NCC(=O)N1Cc2ccccc2C[C@H]1C(=O)N1CC2CCCCC2[C@H]1C(=O)N[C@@H](CCCCN)C(=O)N1Cc2ccccc2C[C@H]1C(=O)N1CC2CCCCC2[C@H]1C(=O)N[C@@H](CCCCN)C(=O)N[C@@H](CCCCN)C(=O)N[C@@H](CCCCN)C(=O)N[C@@H](CCCCN)C(N)=O (stereo partly specified) | 50 µg/mL (≈ 14.6 µM) | 50 µg/mL (≈ 14.6 µM) | 100 µg/mL (≈ 29.2 µM) | 100 µg/mL (≈ 29.2 µM) | 25 µg/mL (≈ 7.3 µM) | 25 µg/mL (≈ 7.3 µM) | 50 µg/mL (≈ 14.6 µM) | 12.5 µg/mL (≈ 3.65 µM) | 25 µg/mL (≈ 7.3 µM) | 6.25 µg/mL (≈ 1.82 µM) | 100 µg/mL (≈ 29.2 µM) | 50 µg/mL (≈ 14.6 µM)
CC(=O)NCC(=O)N[C@@H](Cc1ccc([N+](=O)[O-])cc1)C(=O)N1Cc2ccccc2C[C@H]1C(=O)N1CC2CCCCC2[C@H]1C(=O)NCC(=O)N[C@@H](CCCCN)C(=O)N1Cc2ccccc2C[C@H]1C(=O)N1CC2CCCCC2[C@H]1C(=O)NCC(=O)N[C@@H](Cc1ccc([N+](=O)[O-])cc1)C(=O)N1Cc2ccccc2C[C@H]1C(=O)N1CC2CCCCC2[C@H]1C(=O)NCC(=O)N[C@@H](CCCCN)C(=O)N1Cc2ccccc2C[C@H]1C(=O)N[C@@H](CCCCN)C(=O)N[C@@H](CCCCN)C(=O)N[C@@H](CCCCN)C(=O)N[C@@H](CCCCN)C(N)=O (stereo partly specified) (Ac-G[Phe(4-NO2)][Tic][Pro(3ξ,4ξ-(CH2)4)]GK[Tic][Pro(3ξ,4ξ-(CH2)4)]G[Phe(4-NO2)][Tic][Pro(3ξ,4ξ-(CH2)4)]GK[Tic]KKKK-NH2) | 100 µg/mL (≈ 39.5 µM) | 50 µg/mL (≈ 19.8 µM) | 100 µg/mL (≈ 39.5 µM) | 100 µg/mL (≈ 39.5 µM) | > 100 µg/mL | 100 µg/mL (≈ 39.5 µM) | 12.5 µg/mL (≈ 4.94 µM) | 12.5 µg/mL (≈ 4.94 µM) | 50 µg/mL (≈ 19.8 µM) | 25 µg/mL (≈ 9.88 µM) | 50 µg/mL (≈ 19.8 µM) | 50 µg/mL (≈ 19.8 µM)
CC(=O)NCCC(=O)N[C@@H](Cc1ccc(F)cc1)C(=O)N1Cc2ccccc2C[C@H]1C(=O)N1CC2CCCCC2[C@H]1C(=O)NCCC(=O)N[C@@H](CN)C(=O)N1Cc2ccccc2C[C@H]1C(=O)N1CC2CCCCC2[C@H]1C(=O)NCCC(=O)N[C@@H](Cc1ccc(F)cc1)C(=O)N1Cc2ccccc2C[C@H]1C(=O)N1CC2CCCCC2[C@H]1C(=O)NCCC(=O)N[C@@H](CN)C(=O)N1Cc2ccccc2C[C@H]1C(=O)N[C@@H](CN)C(=O)N[C@@H](CN)C(=O)N[C@@H](CN)C(=O)N[C@@H](CN)C(=O)NC(C)=O (stereo partly specified) (Ac-[βAla][Phe(4-F)][Tic][Pro(3ξ,4ξ-(CH2)4)][βAla][Dap][Tic][Pro(3ξ,4ξ-(CH2)4)][βAla][Phe(4-F)][Tic][Pro(3ξ,4ξ-(CH2)4)][βAla][Dap][Tic][Dap][Dap][Dap]-X1) | 50 µg/mL (≈ 21.5 µM) | 25 µg/mL (≈ 10.8 µM) | 25 µg/mL (≈ 10.8 µM) | 25 µg/mL (≈ 10.8 µM) | > 100 µg/mL | > 100 µg/mL | 25 µg/mL (≈ 10.8 µM) | 12.5 µg/mL (≈ 5.38 µM) | > 100 µg/mL | 50 µg/mL (≈ 21.5 µM) | 25 µg/mL (≈ 10.8 µM) | 12.5 µg/mL (≈ 5.38 µM)
CC(C)C[C@H](NC(=O)[C@@H](N)CCCCN)C(=O)N1Cc2ccccc2C[C@H]1C(=O)N1CC2CCCCC2[C@H]1C(=O)NCC(=O)N[C@@H](CCCCN)C(=O)N1Cc2ccccc2C[C@H]1C(=O)N1CC2CCCCC2[C@H]1C(=O)N[C@@H](Cc1ccccc1)C(=O)N1Cc2ccccc2C[C@H]1C(=O)N1CC2CCCCC2[C@H]1C(=O)NCC(=O)N[C@@H](CCCCN)C(=O)N1Cc2ccccc2C[C@H]1C(=O)N1CC2CCCCC2[C@H]1C(=O)N[C@@H](Cc1ccccc1)C(=O)N1Cc2ccccc2C[C@H]1C(=O)N1CC2CCCCC2[C@H]1C(=O)NCC(=O)N[C@@H](CCCCN)C(=O)N1Cc2ccccc2C[C@H]1C(=O)N1CC2CCCCC2[C@H]1C(=O)N[C@@H](CCCCN)C(=O)N[C@@H](CCCCN)C(=O)N[C@@H](CCCCN)C(=O)N[C@@H](CCCCN)C(N)=O (stereo partly specified) (H-KL[Tic][Pro(3ξ,4ξ-(CH2)4)]GK[Tic][Pro(3ξ,4ξ-(CH2)4)]F[Tic][Pro(3ξ,4ξ-(CH2)4)]GK[Tic][Pro(3ξ,4ξ-(CH2)4)]F[Tic][Pro(3ξ,4ξ-(CH2)4)]GK[Tic][Pro(3ξ,4ξ-(CH2)4)]KKKK-NH2) | > 100 µg/mL | > 100 µg/mL | > 100 µg/mL | > 100 µg/mL | 50 µg/mL (≈ 14.4 µM) | 50 µg/mL (≈ 14.4 µM) | 50 µg/mL (≈ 14.4 µM) | 12.5 µg/mL (≈ 3.59 µM) | 25 µg/mL (≈ 7.18 µM) | 6.25 µg/mL (≈ 1.79 µM) | 100 µg/mL (≈ 28.7 µM) | > 100 µg/mL
CC(=O)NCC(=O)N[C@@H](Cc1ccccc1)C(=O)N1Cc2ccccc2C[C@H]1C(=O)N1CC2CCCCC2[C@H]1C(=O)NCC(=O)N[C@@H](CCCCN)C(=O)N1Cc2ccccc2C[C@H]1C(=O)N1CC2CCCCC2[C@H]1C(=O)NCC(=O)N[C@@H](Cc1ccccc1)C(=O)N1Cc2ccccc2C[C@H]1C(=O)N1CC2CCCCC2[C@H]1C(=O)NCC(=O)N[C@@H](CCCCN)C(=O)N1Cc2ccccc2C[C@H]1C(=O)N[C@@H](CCCCN)C(=O)N[C@@H](CCCCN)C(=O)N[C@@H](CCCCN)C(N)=O (stereo partly specified) (Ac-GF[Tic][Pro(3ξ,4ξ-(CH2)4)]GK[Tic][Pro(3ξ,4ξ-(CH2)4)]GF[Tic][Pro(3ξ,4ξ-(CH2)4)]GK[Tic]KKK-NH2) | > 100 µg/mL | > 100 µg/mL | > 100 µg/mL | > 100 µg/mL | > 100 µg/mL | 100 µg/mL (≈ 43.2 µM) | 50 µg/mL (≈ 21.6 µM) | 12.5 µg/mL (≈ 5.4 µM) | 100 µg/mL (≈ 43.2 µM) | 25 µg/mL (≈ 10.8 µM) | > 100 µg/mL | 100 µg/mL (≈ 43.2 µM)
CC(=O)NCC(=O)N[C@@H](Cc1ccccc1)C(=O)N1Cc2ccccc2C[C@H]1C(=O)N1CC2CCCCC2[C@H]1C(=O)NCC(=O)N[C@@H](CCCNC(=N)N)C(=O)N1Cc2ccccc2C[C@H]1C(=O)N1CC2CCCCC2[C@H]1C(=O)NCC(=O)N[C@@H](Cc1ccccc1)C(=O)N1Cc2ccccc2C[C@H]1C(=O)N1CC2CCCCC2[C@H]1C(=O)NCC(=O)N[C@@H](CCCNC(=N)N)C(=O)N1Cc2ccccc2C[C@H]1C(=O)N[C@@H](CCCNC(=N)N)C(=O)N[C@@H](CCCNC(=N)N)C(=O)N[C@@H](CCCNC(=N)N)C(=O)N[C@@H](CCCNC(=N)N)C(N)=O (stereo partly specified) (Ac-GF[Tic][Pro(3ξ,4ξ-(CH2)4)]GR[Tic][Pro(3ξ,4ξ-(CH2)4)]GF[Tic][Pro(3ξ,4ξ-(CH2)4)]GR[Tic]RRRR-NH2) | > 100 µg/mL | 100 µg/mL (≈ 38.3 µM) | 50 µg/mL (≈ 19.2 µM) | 50 µg/mL (≈ 19.2 µM) | > 100 µg/mL | 50 µg/mL (≈ 19.2 µM) | 12.5 µg/mL (≈ 4.79 µM) | 6.25 µg/mL (≈ 2.4 µM) | 25 µg/mL (≈ 9.58 µM) | 6.25 µg/mL (≈ 2.4 µM) | 100 µg/mL (≈ 38.3 µM) | 50 µg/mL (≈ 19.2 µM)
CC(=O)NCC(=O)N[C@@H](Cc1ccccc1)C(=O)N1Cc2ccccc2[C@H]1C(=O)N1CC2CCCCC2[C@H]1C(=O)NCC(=O)N[C@@H](CCCCN)C(=O)N1Cc2ccccc2[C@H]1C(=O)N1CC2CCCCC2[C@H]1C(=O)NCC(=O)N[C@@H](Cc1ccccc1)C(=O)N1Cc2ccccc2[C@H]1C(=O)N1CC2CCCCC2[C@H]1C(=O)NCC(=O)N[C@@H](CCCCN)C(=O)N1Cc2ccccc2C[C@H]1C(=O)N[C@@H](CCCCN)C(=O)N[C@@H](CCCCN)C(=O)N[C@@H](CCCCN)C(=O)N[C@@H](CCCCN)C(N)=O (stereo partly specified) (Ac-GF[Pro(3,4-benzo)][Pro(3ξ,4ξ-(CH2)4)]GK[Pro(3,4-benzo)][Pro(3ξ,4ξ-(CH2)4)]GF[Pro(3,4-benzo)][Pro(3ξ,4ξ-(CH2)4)]GK[Tic]KKKK-NH2) | > 100 µg/mL | > 100 µg/mL | > 100 µg/mL | > 100 µg/mL | > 100 µg/mL | > 100 µg/mL | 12.5 µg/mL (≈ 5.21 µM) | 12.5 µg/mL (≈ 5.21 µM) | 100 µg/mL (≈ 41.7 µM) | 12.5 µg/mL (≈ 5.21 µM) | > 100 µg/mL | > 100 µg/mL
CC(C)C[C@H](NC(=O)[C@@H](N)CCCCN)C(=O)N1Cc2ccccc2C[C@H]1C(=O)N1CC2CCCCC2[C@H]1C(=O)NCC(=O)N[C@@H](CCCCN)C(=O)N1Cc2ccccc2C[C@H]1C(=O)N1CC2CCCCC2[C@H]1C(=O)NCCC(=O)N[C@@H](Cc1ccccc1)C(=O)N1Cc2ccccc2C[C@H]1C(=O)N1CC2CCCCC2[C@H]1C(=O)NCC(=O)N[C@@H](CCCCN)C(=O)N1Cc2ccccc2C[C@H]1C(=O)N1CC2CCCCC2[C@H]1C(=O)NCCC(=O)N[C@@H](Cc1ccccc1)C(=O)N1Cc2ccccc2C[C@H]1C(=O)N1CC2CCCCC2[C@H]1C(=O)NCC(=O)N[C@@H](CCCCN)C(=O)N1Cc2ccccc2C[C@H]1C(=O)N1CC2CCCCC2[C@H]1C(=O)N[C@@H](CCCCN)C(=O)N[C@@H](CCCCN)C(=O)N[C@@H](CCCCN)C(=O)N[C@@H](CCCCN)C(N)=O (stereo partly specified) (H-KL[Tic][Pro(3ξ,4ξ-(CH2)4)]GK[Tic][Pro(3ξ,4ξ-(CH2)4)][βAla]F[Tic][Pro(3ξ,4ξ-(CH2)4)]GK[Tic][Pro(3ξ,4ξ-(CH2)4)][βAla]F[Tic][Pro(3ξ,4ξ-(CH2)4)]GK[Tic][Pro(3ξ,4ξ-(CH2)4)]KKKK-NH2) | 50 µg/mL (≈ 13.8 µM) | 25 µg/mL (≈ 6.9 µM) | 100 µg/mL (≈ 27.6 µM) | 50 µg/mL (≈ 13.8 µM) | 50 µg/mL (≈ 13.8 µM) | 50 µg/mL (≈ 13.8 µM) | 25 µg/mL (≈ 6.9 µM) | 6.25 µg/mL (≈ 1.72 µM) | 25 µg/mL (≈ 6.9 µM) | 6.25 µg/mL (≈ 1.72 µM) | 50 µg/mL (≈ 13.8 µM) | 50 µg/mL (≈ 13.8 µM)
